Patent publication US20230287416A1, “COMBINATORY TREATMENT OF SMA WITH SARNA AND MRNA MODULATORS” (RACTIGEN THERAPEUTICS, priority 2020, published 2023)

Tested on: SMN2 mRNA
Assay: RT-qPCR of SMN2FL and SMN2 Δ7 mRNA in GM03813 cells
Format: cell-based, human
Conditions: GM03813, 72 h, alone or in combination at 10 nM, RT-qPCR (Example 10, FIG. 12A)
Source text: “GM03813 cells” refers to fibroblast cells provided by Coriell Institute for Medical Research. This cell line is described as SPINAL MUSCULAR ATROPHY, TYPE II; SMA2 SURVIVAL OF MOTOR NEURON 1, TELOMERIC; SMN1. The relevant gene is SMN1; the chromosomal location is 5q12.2-q13.3, the allelic variant is described as 1 exons 7 and 8 deleted, SPINAL MUSCULAR ATROPHY, TYPE I; and the identified mutation: is EX7-8DEL.
Seventy-two hours later, total cellular RNA was isolated from the treated cells and reverse transcribed into cDNA. SMN2 mRNA expression was assessed with RT-qPCR using primer pairs specific for SMN2FL or SMN2 Δ7. SMN2 mRNA expression was also assessed by semi-quantitative RT-PCR using a primer pair that amplifies both SMN2FL and SMN2 Δ7 followed by DdeI digestion (PCR/digestion). […] After digestion, both bands were reduced by 115 bp, resulting in two products: 392 bp (SMN2FL) and 338 bp (SMN2 Δ7) as shown on the gel of FIG. 3D. FIG. 3A-3D show dose-dependent changes in SMN2FL and SMNΔ7 mRNA as assessed by RT-qPCR and PCR/digestion respectively. FIG. 3E-3G are graphic plots of data from quantitating the intensity of bands in FIG. 3D.
SMA patient derived fibroblasts were obtained from Coriell Institute (Camden, N.J., USA), including GM00232 (SMA type I with 2 copies of SMN2 gene) and GM03813 (SMA type II with 3 copies of SMN2 gene). These cells were cultured at 5% C02 and 37° C. in modified MEM medium (Gibco, Thermo Fisher Scientific, Carlsbad, Calif.) supplemented with 15% bovine calf serum (Sigma-Aldrich), 1% NEAA (Gibco) and 1% penicillin/streptomycin (Gibco). To transfect oligonucleotides including saRNAs, siRNA and ASO, cells were seeded into 6-well plates at a density of 1×10^5 cells/well and were transfected with oligonucleotides at different concentrations using RNAiMax (Invitrogen, Carlsbad, Calif.) according to the reverse transfection protocol provided by the manufacturer for 72 hours (unless otherwise specified). For Risdiplam treatment of cells, Risdiplam (HY-109101, MedChem Express Company, Monmouth Junction, N.J., USA) dissolved in DMSO was added directly to cells at desired concentration for 72 hours unless specified otherwise.
For RNA isolation from cultured cells, total cellular RNA was isolated from treated cells using an RNeasy Plus Mini kit (Qiagen, Hilden, Germany) according to its manual. To isolated RNA from animal tissues, tissues were harvested and stored at RNA later (AM7021, Thermo Fisher). Total RNA was then isolated using MagPure Total RNA Micro LQ kit (Magen, R6621, China) by auto-pure96 machine (ALLSHENG, China). The resultant RNA (1 μg) was reverse transcribed into cDNA by using a PrimeScript RT kit containing gDNA Eraser (Takara, Shlga, Japan). The resultant cDNA was amplified in an ABI 7500 Fast Real-time PCR System (Applied Biosystems; Foster City, Calif.) using SYBR Premix Ex Taq 11 (Takara, Shlga, Japan) reagents and primers which specifically amplified full-length (SMN2FL) or A7 SMN2 mRNA (SMN2 Δ7) (FIG. 1). The reaction conditions were: 95° C. for 3 seconds (1 cycle) and 60° C. for 30 seconds (40 cycles). Amplification of TBP gene served as an internal control.

Substance | SMN2FL mRNA fold change [fold] | SMN2 Δ7 mRNA fold change [fold]
DS06-0031: saRNA targeting SMN2 promoter at -1266; SEQ ID NO: 478/479 (chain 1 UUGUACACUUGGUCAACAUTT; chain 2 AUGUUGACCAAGUGUACAATT; chemistry not given here) | 0.9 | 1.9
DS06-0067: saRNA targeting SMN2 promoter at -293; SEQ ID NO: 480/481 (chain 1 CACUGGAGUUCGAGACGAGTT; chain 2 CUCGUCUCGAACUCCAGUGTT; chemistry not given here) | 1.3 | 2.4
